# Measurements as given in patent publication US9428504B2, “7-hydroxy-spiropipiperidine indolinyl antagonists of P2Y1 receptor” (BRISTOL-MYERS SQUIBB COMPANY, priority 2012, dated 2016).
# Target: cloned human P2Y1 receptors (Homo sapiens (Human), UniProt P47900)
# Test: Binding Assay B: Scintillation Proximity Assay (SPA) for P2Y1 binding
# Conditions: SPA, [33P] 2MeS-ADP displacement; read-out: P2Y1 Ki (nM) using binding assay B
# Description: A SPA membrane binding assay was used to identify inhibitors of [^33P] […] Binding reactions were performed in 384-well OptiPlates (PerkinElmer Life Sciences, Cat #6007299) in a volume of 50 μL containing ˜15 fmol of P2Y1 receptor (1.7 μg of total protein), 0.3 nM [^33P] […] Reactions were allowed to proceed to completion at room temperature for 1 hour followed by centrifugation of the plate for 5 min. About 40 μL of the aqueous solution was aspirated. Plates were sealed and the [^33P]
# cloned human P2Y1 receptors, sequence (P47900 whole entry): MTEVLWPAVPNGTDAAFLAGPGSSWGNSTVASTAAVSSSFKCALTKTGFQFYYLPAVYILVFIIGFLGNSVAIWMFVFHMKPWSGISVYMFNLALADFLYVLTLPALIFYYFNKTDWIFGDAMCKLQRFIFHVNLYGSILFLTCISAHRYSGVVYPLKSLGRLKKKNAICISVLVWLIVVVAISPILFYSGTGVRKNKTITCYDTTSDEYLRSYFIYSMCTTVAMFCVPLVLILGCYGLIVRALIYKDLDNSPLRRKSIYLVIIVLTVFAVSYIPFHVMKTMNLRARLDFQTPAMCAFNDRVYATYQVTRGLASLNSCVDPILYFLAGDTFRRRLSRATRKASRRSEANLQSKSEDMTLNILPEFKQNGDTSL
row,SMILES,Ki
1,"CC(C)(C)CN1CCC2(CC1)CN(c1ccccc1NC(=O)Nc1nc3ccc(F)cc3s1)c1c(O)ccc(Cl)c12 [Example 39, 1-(2-(4-Chloro-7-hydroxy-1′-neopentylspiro[indoline-3,4′-piperidine]-1-yl)phenyl)-3-(6-fluorobenzo[d]thiazol-2-yl)urea]",3.8 nM
2,"CC(C)CN1CCc2nc(NC(=O)Nc3ccccc3N3CC4(CCN(CC(C)(C)C)CC4)c4c(Cl)ccc(O)c43)sc2C1 [Example 74, 1-(2-(4-Chloro-7-hydroxy-1′-neopentylspiro[indoline-3,4′-piperidine]-1-yl)phenyl)-3-(5-isobutyl-4,5,6,7-tetrahydrothiazolo[5,4-c]pyridin-2-yl)urea]",10.3 nM

# System: human platelet rich plasma (PRP)
# Test: ADP induced platelet aggregation assay
# Conditions: Homo sapiens, Platelet, read-out: PA IC50 (μM) @ 10 μM ADP, platelet aggregation induced by 10 μM ADP, human PRP
row,SMILES,IC50
1,"CC(C)(C)CN1CCC2(CC1)CN(c1ccccc1NC(=O)Nc1nc3ccc(F)cc3s1)c1c(O)ccc(Cl)c12 [Example 39, 1-(2-(4-Chloro-7-hydroxy-1′-neopentylspiro[indoline-3,4′-piperidine]-1-yl)phenyl)-3-(6-fluorobenzo[d]thiazol-2-yl)urea]",0.2 µM
2,"CC(C)CN1CCc2nc(NC(=O)Nc3ccccc3N3CC4(CCN(CC(C)(C)C)CC4)c4c(Cl)ccc(O)c43)sc2C1 [Example 74, 1-(2-(4-Chloro-7-hydroxy-1′-neopentylspiro[indoline-3,4′-piperidine]-1-yl)phenyl)-3-(5-isobutyl-4,5,6,7-tetrahydrothiazolo[5,4-c]pyridin-2-yl)urea]",0.2 µM
3,"CC(C)(C)CN1CCC2(CC1)CN(c1ccccc1NC(=O)Nc1csc(Cl)n1)c1c(O)ccc(-c3nc4cccc(Cl)c4s3)c12 [Example 122, 1-(2-(4-(7-Chlorobenzo[d]thiazol-2-yl)-7-hydroxy-1′-neopentylspiro[indoline-3,4′-piperidin]-1-yl)phenyl)-3-(2-chlorothiazol-4-yl)urea]",0.4 µM
4,"CC(C)(C)CN1CCC2(CC1)CN(c1ccccc1NC(=O)Nc1nc3ccc(F)cc3s1)c1c(O)ccc(-c3nc4ccc(F)cc4s3)c12 [Example 148, 1-(6-Fluorobenzo[d]thiazol-2-yl)-3-(2-(4-(6-fluorobenzo[d]thiazol-2-yl)-7-hydroxy-1′-neopentylspiro[indoline-3,4′-piperidin]-1-yl)phenyl)urea]",0.3 µM
5,"CC(C)(C)CN1CCC2(CC1)CN(c1ccccc1NC(=O)Nc1nc3ccc(Cl)nc3s1)c1c(O)ccc(-c3nc4cc(Cl)ccc4s3)c12 [Example 110, 1-(2-(4-(5-Chlorobenzo[d]thiazol-2-yl)-7-hydroxy-1′-neopentylspiro[indoline-3,4′-piperidin]-1-yl)phenyl)-3-(5-chlorothiazolo[5,4-b]pyridin-2-yl)urea]",0.5 µM
6,"CC(C)(C)CN1CCC2(CC1)CN(c1ccccc1NC(=O)Nc1ccc(OC(F)(F)F)cc1)c1c(O)cc(F)cc12 [Example 76, 1-(2-(5-Fluoro-7-hydroxy-1′-neopentylspiro[indoline-3,4′-piperidine]-1-yl)phenyl)-3-(4-(trifluoromethoxy)phenyl)urea]",0.7 µM
7,"CC(C)(C)CN1CCC2(CC1)CN(c1ccccc1NC(=O)Nc1nc3ccc(Cl)cc3s1)c1c(O)cc(F)c(Cl)c12 [Example 94, 1-(2-(4-Chloro-5-fluoro-7-hydroxy-1′-neopentylspiro [indoline-3,4′-piperidine]-1-yl)phenyl)-3-(6-chlorobenzo[d]thiazol-2-yl)urea]",0.7 µM
8,"COc1ccc2nc(NC(=O)Nc3ccccc3N3CC4(CCN(CC(C)(C)C)CC4)c4c(C#N)ccc(O)c43)sc2c1 [Example 86, l-(2-(4-Cyano-7-hydroxy-1′-neopentylspiro[indoline-3,4′-piperidin]-1-yl)phenyl)-3-(6-methoxybenzo[d]thiazol-2-yl)urea]",0.8 µM
9,"CC(C)(C)CN1CCC2(CC1)CN(c1ccccc1NC(=O)Nc1nc3ccc(Cl)nc3s1)c1c(O)ccc(-c3nc4cc(C(F)(F)F)ccc4s3)c12 [Example 109, 1-(5-Chlorothiazolo[5,4-b]pyridin-2-yl)-3-(2-(7-hydroxy-1′-neopentyl-4-(5-(trifluoromethyl)benzo[d]thiazol-2-yl)spiro[indoline-3,4′-piperidin]-1-yl)phenyl)urea]",0.4 µM
10,"CC(C)CN1CCC2(CC1)CN(c1ccccc1NC(=O)Nc1nc3ccc(Cl)nc3s1)c1c(O)ccc(C(F)(F)F)c12 [Example 171, 1-(5-Chlorothiazolo[5,4-b]pyridin-2-yl)-3-(2-(7-hydroxy-1′-isobutyl-4-(trifluoromethyl)spiro[indoline-3,4′-piperidine]-1-yl)phenyl)urea]",0.3 µM
11,"CC(C)(C)CN1CCC2(CC1)CN(c1ccccc1NC(=O)Nc1nc3ccc(F)nc3s1)c1c(O)ccc(C#N)c12 [Example 180, 1-(2-(4-Cyano-7-hydroxy-1′-neopentylspiro[indoline-3,4′-piperidine]-1-yl)phenyl)-3-(5-fluorothiazolo[5,4-b]pyridin-2-yl)urea]",0.9 µM
12,"CC(C)c1nsc(NC(=O)Nc2ccccc2N2CC3(CCN(CC(C)(C)C)CC3)c3c(C#N)ccc(O)c32)n1 [Example 88, l-(2-(4-Cyano-7-hydroxy-1′-neopentylspiro[indoline-3,4′-piperidin]-1-yl)phenyl)-3-(3-isopropyl-1,2,4-thiadiazol-5-yl)urea]",0.9 µM
13,"CC(C)N1CCC2(CC1)CN(c1ccccc1NC(=O)Nc1ccc(OC(F)(F)F)cc1)c1c(O)ccc(-c3nc4cc(Cl)ccc4s3)c12 [Example 143, 1-(2-(4-(5-Chlorobenzo[d]thiazol-2-yl)-7-hydroxy-1′-isopropylspiro[indoline-3,4′-piperidine]-1-yl)phenyl)-3-(4(trifluoromethoxy)phenyl)urea]",0.9 µM
14,"COc1ccc2nc(NC(=O)Nc3ccccc3N3CC4(CCN(CC(C)(C)C)CC4)c4c(C#N)ccc(O)c43)sc2n1 [Example 177, 1-(2-(4-Cyano-7-hydroxy-1′-neopentylspiro[indoline-3,4′-piperidine]-1-yl)phenyl)-3-(5-methoxythiazolo[5,4-b]pyridin-2-yl)urea]",0.7 µM
15,"CC(C)CN1CCC2(CC1)CN(c1ccccc1NC(=O)Nc1ccc(OC(F)(F)F)cc1)c1c(O)ccc(-c3nc4cc(Cl)ccc4s3)c12 [Example 142, 1-(2-(4-(5-Chlorobenzo[d]thiazol-2-yl)-7-hydroxy-1′-isobutylspiro[indoline-3,4′-piperidine]-1-yl)phenyl)-3-(4-(trifluoromethoxy)phenyl)urea]",0.5 µM
16,"CC(C)(C)CN1CCC2(CC1)CN(c1ccccc1NC(=O)Nc1nc3ccc(F)cc3s1)c1c(O)ccc(-c3nc4ccc(Cl)cc4s3)c12 [Example 139, 1-(2-(4-(6-Chlorobenzo[d]thiazol-2-yl)-7-hydroxy-1′-neopentylspiro[indoline-3,4′-piperidin]-1-yl)phenyl)-3-(6-fluorobenzo[d]thiazol-2-yl)urea]",0.4 µM
17,"CC(C)(C)CN1CCC2(CC1)CN(c1ccccc1NC(=O)Nc1nc3ccc(Cl)cc3s1)c1c(O)ccc(-c3nc4cc(F)ccc4s3)c12 [Example 127, 1-(6-Chlorobenzo[d]thiazol-2-yl)-3-(2-(4-(5-fluorobenzo[d]thiazol-2-yl)-7-hydroxy-1′-neopentylspiro[indoline-3,4′-piperidin]-1-yl)phenyl)urea]",0.5 µM
18,"CC(C)(C)CN1CCC2(CC1)CN(c1ccccc1NC(=O)Nc1ccc(OC(F)(F)F)cc1)c1c(O)ccc(-c3nc4ccc(Cl)cc4s3)c12 [Example 136, 1-(2-(4-(6-Chlorobenzo[d]thiazol-2-yl)-7-hydroxy-1′-neopentylspiro[indoline-3,4′-piperidin]-1-yl)phenyl)-3-(4-(trifluoromethoxy)phenyl)urea]",0.5 µM
19,"CC(C)(C)CN1CCC2(CC1)CN(c1ccc(F)cc1NC(=O)Nc1nc3ccc(F)cc3s1)c1c(O)ccc(Cl)c12 [Example 68, 1-(2-(4-Chloro-7-hydroxy-1′-neopentylspiro[indoline-3,4′-piperidine]-1-yl)-5-fluorophenyl)-3-(6-fluorobenzo[d]thiazol-2-yl)urea]",0.7 µM
20,"CC(C)(C)CN1CCC2(CC1)CN(c1ccccc1NC(=O)Nc1csc(Cl)n1)c1c(O)cc(F)c(-c3ccc(Cl)cc3)c12 [Example 163, 1-(2-(4-(4-Chlorophenyl)-5-fluoro-7-hydroxy-1′-neopentylspiro[indoline-3,4′-piperidin]-1-yl)phenyl)-3-(2-chlorothiazol-4-yl)urea]",0.1 µM
21,"CC(C)(C)CN1CCC2(CC1)CN(c1ccccc1NC(=O)Nc1csc(Cl)n1)c1c(O)cc(F)c(Cl)c12 [Example 103, 1-(2-(4-Chloro-5-fluoro-7-hydroxy-1′-neopentylspiro [indoline-3,4′-piperidin]-1-yl)phenyl)-3-(2-chlorothiazol-4-yl)urea]",0.3 µM
22,"CC(C)(C)CN1CCC2(CC1)CN(c1ccccc1NC(=O)Nc1nc3ccc(F)cc3s1)c1c(O)ccc(-c3nc4cc(Cl)ccc4s3)c12 [Example 133, 1-(2-(4-(5-Chlorobenzo[d]thiazol-2-yl)-7-hydroxy-1′-neopentylspiro[indoline-3,4′-piperidin]-1-yl)phenyl)-3-(6-fluorobenzo[d]thiazol-2-yl)urea]",0.3 µM
23,"CC(C)(C)CN1CCC2(CC1)CN(c1ccccc1NC(=O)Nc1csc(Cl)n1)c1c(O)ccc(-c3nc4cc(Cl)ccc4s3)c12 [Example 111, 1-(2-(4-(5-Chlorobenzo[d]thiazol-2-yl)-7-hydroxy-1′-neopentylspiro[indoline-3,4′-piperidine]-1-yl)phenyl)-3-(2-chlorothiazol-4-yl)urea]",0.2 µM
24,"CC(C)(C)CN1CCC2(CC1)CN(c1ccccc1NC(=O)Nc1ccc(OC(F)(F)F)cc1)c1c(O)ccc(-c3nc4cc(Cl)ccc4s3)c12 [Example 134, 1-(2-(4-(5-Chlorobenzo[d]thiazol-2-yl)-7-hydroxy-1′-neopentylspiro[indoline-3,4′-piperidin]-1-yl)phenyl)-3-(4-(trifluoromethoxy)phenyl)urea]",0.4 µM

# Same assay, conditions: read-out: PA IC50 (μM) @ 10 μM ADP; platelet aggregation induced by 10 μM ADP, human PRP
row,SMILES,IC50
1,"CC(C)(C)CN1CCC2(CC1)CN(c1ccccc1NC(=O)Nc1ccc(OC(F)(F)F)cc1)c1c(O)cc(F)c(-c3nc4ccc(F)cc4s3)c12 [Example 151, 1-(2-(5-Fluoro-4-(6-fluorobenzo[d]thiazol-2-yl)-7-hydroxy-1′-neopentylspiro[indoline-3,4′-piperidin]-1-yl)phenyl)-3-(4-(trifluoromethoxy)phenyl)urea]",0.3 µM
